# pEC50, pIC50: −log10 of the molar value. “And” between values parts separate entries of the source, which are not always exact repeats. Equal values may be shown once. Read-outs that look alike come from different tables or passages of the source.
# Assays:
# [1] = biological target: recombinant S. aureus MetRS enzyme (Staphylococcus aureus, UniProt A0A0H2XID2); test: Inhibition of SaMetRS, ATP depletion assay; type: biochemical; details: read-out: (B) MetRS (S. aureus) IC50
# Procedure: Production of recombinant S. aureus MetRSs. The SaMetRS gene (UniProtKB—A0A0H2XID2) was PCR amplified (Sense 5′-[…]-3′ (SEQ ID NO: 1) and Antisense 5′-[…]-3′ (SEQ ID NO:2)) from genomic DNA isolated from S. aureus (ATCC 29213) cultures. The PCR product was then cloned into the AVA0421 plasmid and sequence verified. The expression of recombinant protein was performed as previously described. The N-terminal 6-His fusion proteins were purified by nickel affinity chromatography followed by size exclusion gel chromatography (Superdex 75 26/60; GE Biosciences, Piscataway, N.J.).
# Enzyme assays. Inhibition of SaMetRS was measured using the ATP depletion assay as previously described with some modifications. Compounds were pre-incubated for 15 minutes at room temperature in a 96-well plate with 400 μg/mL bulk E. coli tRNA, 25 nM SaMetRS, 0.1 U/mL pyrophosphatase, 0.2 mM spermine, 0.1 mg/mL bovine serum albumin, 2.5 mM dithiothreitol, 25 mM HEPES-KOH pH 7.9, 10 mM MgCl2, 50 mM KCl, and 2% DMSO. Reagents were purchased from Sigma-Aldrich or Roche. The reaction was started with the addition of 150 nM ATP and 20 μM L-methionine and after 120 minute incubation was stopped by the addition of an equal volume (50 μL) of Kinase-Glo® (Promega). Percent inhibition=100×(test compound−AVG low control)/(AVG high control−AVG low control) where the low control is all reagents except the compound and the high control is all reagents except the compounds and L-methionine. IC50 values were calculated by non-linear regression, sigmoidal-dose response, in Prism 3.0.
# [2] = tested on: S. aureus MRSA (ATCC 33591); test: MIC susceptibility testing; type: cell-based, Staphylococcus aureus; details: MRSA ATCC33591; for MIC: Staphylococcus aureus, read-out: (G) MRSA (ATCC33591) MIC
# Summary of the method: (§1)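 CLSI broth microdilution in triplicate, 5×10^5 CFU/mL final, ≤0.5% DMSO; MHB for S. aureus, CA-MHB for E. coli and E. faecium, CA-MHB plus 3% laked horse blood for S. pyogenes (5% CO2).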
# [3] = tested on: S. aureus MSSA (ATCC 29213); test: MIC susceptibility testing; type: cell-based, Staphylococcus aureus; details: Staphylococcus aureus, S. aureus ATCC 29213, read-out: (F) S. aureus (ATCC 29213) MIC
# [4] = tested on: E. faecium VRE (ATCC 51559); test: MIC susceptibility testing; type: cell-based, Enterococcus faecium; details: Enterococcus faecium, E. faecium ATCC 51559; read-out: (I) E. faecium (ATCC 51559) MIC
# Summary of the method: as §1
# MetRS (T. brucei) = biological target: T1, MetRS (T. brucei) (Trypanosoma brucei brucei, UniProt Q38C91); test: MetRS (T. brucei) enzyme inhibition; type: biochemical
# T1 sequence (Q38C91 1-773): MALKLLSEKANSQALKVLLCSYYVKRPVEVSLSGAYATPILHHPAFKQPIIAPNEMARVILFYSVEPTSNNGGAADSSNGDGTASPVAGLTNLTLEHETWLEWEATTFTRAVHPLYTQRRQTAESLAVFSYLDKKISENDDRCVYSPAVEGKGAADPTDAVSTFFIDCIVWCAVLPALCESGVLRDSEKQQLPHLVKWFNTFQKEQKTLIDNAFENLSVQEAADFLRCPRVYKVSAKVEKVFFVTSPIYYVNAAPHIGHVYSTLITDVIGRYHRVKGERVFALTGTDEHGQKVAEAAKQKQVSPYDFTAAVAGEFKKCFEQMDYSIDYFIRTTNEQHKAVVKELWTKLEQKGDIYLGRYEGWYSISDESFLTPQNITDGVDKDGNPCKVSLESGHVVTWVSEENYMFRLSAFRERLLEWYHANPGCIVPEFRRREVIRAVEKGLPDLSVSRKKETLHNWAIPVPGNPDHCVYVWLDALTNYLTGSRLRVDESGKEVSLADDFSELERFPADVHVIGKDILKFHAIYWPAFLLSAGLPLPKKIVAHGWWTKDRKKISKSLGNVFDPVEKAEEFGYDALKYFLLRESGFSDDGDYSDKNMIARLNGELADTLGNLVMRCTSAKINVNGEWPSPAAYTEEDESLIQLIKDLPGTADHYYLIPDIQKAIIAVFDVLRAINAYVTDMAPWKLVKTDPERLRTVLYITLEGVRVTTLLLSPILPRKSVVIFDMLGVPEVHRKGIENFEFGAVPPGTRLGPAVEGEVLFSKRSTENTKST
# MetRS (C. parvum) = MetRS (C. parvum) (Cryptosporidium parvum, UniProt Q5CVN0); test: MetRS (C. parvum) enzyme inhibition; type: biochemical; details: read-out: (C) MetRS (C. parvum) IC50
# T. cruzi = T. cruzi growth inhibition; type: cell-based, Trypanosoma cruzi; details: read-out: (E) T. cruzi EC50
# T. brucei = T. brucei growth inhibition; type: cell-based, Trypanosoma brucei; details: read-out: (D) T. brucei EC50
# C. parvum = C. parvum growth inhibition; type: cell-based, Cryptosporidium parvum; details: Cryptosporidium parvum; read-out: (J) C. parvum EC50
# S. pyogenes (ATCC 19615) = test: MIC susceptibility testing; type: cell-based; details: Streptococcus pyogenes, ATCC19615, S. pyogenes ATCC 19615; read-out: (H) S. pyogenes (ATCC 19615) MIC
# Text: Media and culture conditions. Mueller Hinton broth (MHB), cation adjusted Mueller Hinton broth (CA-MHB), and Brain Heart Infusion broth (BHI) were purchased from Becton Dickinson (Franklin Lakes, N.J.). Tryptic soy agar (TSA) plates, TSA with 5% sheep blood plates, and CA-MHB with 3% laked horse blood were purchased from Remel (San Diego, Calif.). MHB was used to assay all Staphylococcus aureus strains. CA-MHB was used for Staphylococcus epidermidis, Enterococcus faecalis, Enterococcus faecium, Escherichia coli, and Pseudomonas aeruginosa. CA-MHB supplemented with 3% laked horse blood was used for Streptococcus pneumoniae and Streptococcus pyogenes. Staphylococcus, Enterococcus, Escherichia, and Pseudomonas strains were cultured at 37° C. with ambient air. Streptococcus strains were cultured in 37° C. with 5% CO2. Separate conditions for radiolabeled precursor uptake assays are described below.
# Susceptibility testing: Minimum inhibitory concentration (MIC) determinations were performed in triplicate in 96-well round bottom microtiter plates (Corning, Corning N.Y.) as described by the Clinical and Laboratory Standards Institute (CLSI). Serial two-fold dilutions of compounds were added to plates in 50 μL volumes. An additional 50 μL of media containing bacterial cells (1×10^6 CFUs/mL) was then added to each well. Maximum DMSO concentrations were 0.5%. Plates were incubated at 37° C. for at least 18 h before reading the susceptibility result by optical absorbance (OD600) using a BioTek ELx800. The lowest concentration causing ≥90% growth inhibition compared to the untreated control was recorded as the MIC (and also corresponded to the visual MIC). MICs were measured at least twice and the higher value (if different) was recorded herein.
# Chain of MetRS (C. parvum) (Q5CVN0 entry or part of it): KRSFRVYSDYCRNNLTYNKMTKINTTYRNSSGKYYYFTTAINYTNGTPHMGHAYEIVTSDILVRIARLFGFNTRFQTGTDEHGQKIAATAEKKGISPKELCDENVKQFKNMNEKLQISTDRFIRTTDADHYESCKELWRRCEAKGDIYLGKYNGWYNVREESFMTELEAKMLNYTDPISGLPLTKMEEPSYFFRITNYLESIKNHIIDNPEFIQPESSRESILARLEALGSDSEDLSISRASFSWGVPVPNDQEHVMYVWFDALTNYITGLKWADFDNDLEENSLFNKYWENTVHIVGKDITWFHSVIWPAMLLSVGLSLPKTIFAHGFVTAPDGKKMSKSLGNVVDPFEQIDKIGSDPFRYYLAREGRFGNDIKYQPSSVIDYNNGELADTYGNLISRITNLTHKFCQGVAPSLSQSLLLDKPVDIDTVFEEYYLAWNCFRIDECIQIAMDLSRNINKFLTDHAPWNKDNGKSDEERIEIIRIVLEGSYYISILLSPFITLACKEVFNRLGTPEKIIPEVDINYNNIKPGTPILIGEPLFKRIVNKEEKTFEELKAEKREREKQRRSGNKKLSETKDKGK
pEC50 (T. brucei; Trypanosoma brucei),pEC50 (T. brucei),MIC (S. pyogenes (ATCC 19615)) [µg/mL],MIC ([3]; ATCC29213|MSSA) [µg/mL],Structure (SMILES),pIC50 [1],MIC [2] [µg/mL],MIC [3] [µg/mL],MIC [4] [µg/mL],pIC50 (MetRS (T. brucei)),pIC50 (MetRS (C. parvum)),pEC50 (T. cruzi; Trypanosoma cruzi),(G) MRSA (ATCC33591) MIC [2],pEC50 (T. cruzi),pEC50 (C. parvum)
,,,,"COCCCn1c(Cc2ccc(Cl)cc2Cl)cn(Cc2nc3ccc(F)nc3[nH]2)c1=O [Compound 2082, 4-[(2,4-dichlorophenyl)methyl]-1-({5-fluoro-1H-imidazo[4,5-b]pyridin-2-yl}methyl)-3-(3-methoxypropyl)-2,3-dihydro-1H-imidazol-2-one]",> 7.60,1.54,0.18,0.238,> 7.40,> 7.40,6.84,,,
,,,,"COc1cc(-c2cccc3nc(Cc4nc5nc(Br)ccc5[nH]4)cn23)c(Cl)cc1Cl [Compound 2146, 2-({5-bromo-1H-imidazo[4,5-b]pyridin-2-yl}methyl)-5-(2,4-dichloro-5-methoxyphenyl)imidazo[1,2-a]pyridine]",> 7.60,0.127,,0.141,> 7.40,7.03,7.71,"0.165, μg/mL and 0.179 μg/mL",7.53,5.70
,,,,"COc1ccc(-c2ccc(NS(C)(=O)=O)c3nc(Cc4nc5nc(Cl)ccc5[nH]4)cn23)c(Cl)c1 [Compound 2174, N-[2-({5-chloro-1H-imidazo[4,5-b]pyridin-2-yl}methyl)-5-(2-chloro-4-methoxyphenyl)imidazo[1,2-a]pyridin-8-yl]methanesulfonamide]",> 7.60,0.319,0.158,0.318,> 7.40,> 7.40,6.71,,,5.92
,,,,"COc1ccc(-c2ccc(NC(C)=O)c3nc(Cc4nc5nc(Br)ccc5[nH]4)cn23)c(Cl)c1 [Compound 2184, N-[2-({5-bromo-1H-imidazo[4,5-b]pyridin-2-yl}methyl)-5-(2-chloro-4-methoxyphenyl)imidazo[1,2-a]pyridin-8-yl]acetamide]",> 7.60,0.435,0.201,0.286,> 7.40,> 7.40,7.53,,7.64,6.14
6.08,,> 8,,"CC(C)NCC(O)Cn1c(Cc2ccc(Cl)cc2Cl)cn(Cc2nc3cc(F)c(F)cc3[nH]2)c1=O (stereo not drawn) [Compound 2293, 4-[(2,4-dichlorophenyl)methyl]-1-[(5,6-difluoro-1H-1,3-benzodiazol-2-yl)methyl]-3-{2-hydroxy-3-[(propan-2-yl)amino]propyl}-2,3-dihydro-1H-imidazol-2-one]",,,> 8,,,,,,,
7.52,,> 8,,"CC(C)NCC(O)Cn1c(Cc2ccc(Cl)cc2Cl)cn(Cc2nc3ccc(F)nc3[nH]2)c1=O (stereo not drawn) [Compound 2294, 4-[(2,4-dichlorophenyl)methyl]-1-({5-fluoro-1H-imidazo[4,5-b]pyridin-2-yl}methyl)-3-{2-hydroxy-3-[(propan-2-yl)amino]propyl}-2,3-dihydro-1H-imidazol-2-one]",,,> 8,,,,5.48,,,
> 9.04,9.15,1.16,0.124,CCn1c(Cc2c(Cl)cc(Cl)cc2OC)cn(Cc2nc3ccc(Cl)nc3[nH]2)c1=O [Compound 2295],,,,,,,8.28,,8.34,
> 9.04,9.11,0.455,,"CCn1c(C(=O)c2ccc(OC)cc2Cl)cn(Cc2nc3ccc(Cl)nc3[nH]2)c1=O [Compound 2296, 1-({5-chloro-1H-imidazo[4,5-b]pyridin-2-yl}methyl)-4-(2-chloro-4-methoxybenzoyl)-3-ethyl-2,3-dihydro-1H-imidazol-2-one]",,,0.21,,,,8.28,,8.13,7.21
8.15,,> 8,,"CCn1c(C(O)c2ccc(OC)cc2Cl)cn(Cc2nc3ccc(Cl)nc3[nH]2)c1=O (stereo not drawn) [Compound 2297, 1-({5-chloro-1H-imidazo[4,5-b]pyridin-2-yl}methyl)-4-[(2-chloro-4-methoxyphenyl)(hydroxy)methyl]-3-ethyl-2,3-dihydro-1H-imidazol-2-one]",,,2.98,,,,7.27,,7.10,6.69

Structure (SMILES),pEC50 (T. brucei; Trypanosoma brucei),pEC50 (T. brucei),MIC (S. pyogenes (ATCC 19615)) [µg/mL],MIC ([3]; ATCC29213|MSSA) [µg/mL],pIC50 [1],MIC [2] [µg/mL],MIC [3] [µg/mL],MIC [4] [µg/mL],pIC50 (MetRS (T. brucei)),pIC50 (MetRS (C. parvum)),pEC50 (T. cruzi; Trypanosoma cruzi),(G) MRSA (ATCC33591) MIC [2],pEC50 (T. cruzi),pEC50 (C. parvum)
"Clc1ccc(-c2cccc3nc(Cc4nc5nc(Cl)ccc5[nH]4)cn23)c(Cl)c1 [Compound 2134, 2-({5-chloro-1H-imidazo[4,5-b]pyridin-2-yl}methyl)-5-(2,4-dichlorophenyl)-imidazo[1,2-a]pyridine]",7.19,,,,> 7.60,0.268,0.162,0.259,> 7.40,7.23,6.16,0.331 µg/mL,,
"O=c1n(Cc2nc3ccc(Cl)nc3[nH]2)cc(Cc2ccc(Cl)cc2Cl)n1CC(F)F [Compound 2138, 1-({5-chloro-1H-imidazo[4,5-b]pyridin-2-yl}methyl)-4-[(2,4-dichlorophenyl)-methyl]-3-(2,2-difluoroethyl)-2,3-dihydro-1H-imidazol-2-one]",8.61,8.46,,,> 7.60,0.553,0.062,0.596,> 7.40,> 7.40,7.57,,7.27,
